# Legend:
# wild type RET = wild type RET (Homo sapiens (Human), UniProt P07949); experiment: RET Wild Type Assay at KM (Caliper electrophoretic mobility shift); type: biochemical; details: 25 μM ATP (KM)
# RET V804L = RET V804L (Homo sapiens (Human), UniProt P07949, V804L); experiment: RET V804L Gatekeeper Mutant Assay at KM (Caliper electrophoretic mobility shift); type: biochemical; details: 10 μM ATP (KM), read-out: V480L Mutant
# Sequence of RET V804L (P07949 29-1114 V804L): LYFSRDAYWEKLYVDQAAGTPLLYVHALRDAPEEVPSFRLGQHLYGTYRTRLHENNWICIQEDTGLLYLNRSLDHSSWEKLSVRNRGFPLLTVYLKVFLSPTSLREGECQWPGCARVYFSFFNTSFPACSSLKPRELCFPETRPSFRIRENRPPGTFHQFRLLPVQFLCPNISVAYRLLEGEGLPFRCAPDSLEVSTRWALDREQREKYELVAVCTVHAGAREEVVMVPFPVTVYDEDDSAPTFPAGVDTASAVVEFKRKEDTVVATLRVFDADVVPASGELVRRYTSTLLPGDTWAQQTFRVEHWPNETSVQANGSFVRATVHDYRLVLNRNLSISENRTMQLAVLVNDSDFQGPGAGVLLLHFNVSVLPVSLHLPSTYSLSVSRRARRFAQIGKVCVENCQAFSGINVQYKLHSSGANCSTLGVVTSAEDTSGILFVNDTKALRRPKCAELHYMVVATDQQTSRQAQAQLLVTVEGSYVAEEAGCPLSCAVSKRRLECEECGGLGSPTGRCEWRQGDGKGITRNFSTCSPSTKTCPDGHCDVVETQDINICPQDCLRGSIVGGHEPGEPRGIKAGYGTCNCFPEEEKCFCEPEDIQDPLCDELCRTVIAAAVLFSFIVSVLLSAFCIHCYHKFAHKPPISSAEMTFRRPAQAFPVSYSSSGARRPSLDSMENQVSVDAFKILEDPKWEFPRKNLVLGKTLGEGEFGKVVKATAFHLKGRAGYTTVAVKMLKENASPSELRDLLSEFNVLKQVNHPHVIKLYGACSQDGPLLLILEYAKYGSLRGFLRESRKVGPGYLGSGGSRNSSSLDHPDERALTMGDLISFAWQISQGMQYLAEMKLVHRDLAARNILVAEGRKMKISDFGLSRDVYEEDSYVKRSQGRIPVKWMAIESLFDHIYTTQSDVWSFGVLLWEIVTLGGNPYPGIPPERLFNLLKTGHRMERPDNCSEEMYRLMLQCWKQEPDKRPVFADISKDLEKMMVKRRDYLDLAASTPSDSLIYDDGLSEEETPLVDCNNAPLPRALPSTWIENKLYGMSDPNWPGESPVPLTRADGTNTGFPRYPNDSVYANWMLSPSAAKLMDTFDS
# Sequence of wild type RET (P07949 29-1114): as the sequence (P07949 29-1114 V804L) above, with L776V counted along it
IC50 (wild type RET),IC50 (RET V804L),Compound
< 10 nM,< 10 nM,CCC1(C(=O)NCc2ccc(-n3cccn3)nc2)CCN(c2nc(C)cc(Nc3cc(C)[nH]n3)n2)CC1 [Compound 158]
< 10 nM,< 10 nM,Cc1cc(Nc2cc(C)[nH]n2)nc(N2CC(C#N)(C(=O)N[C@@H](C)c3ccc(-n4cc(F)cn4)nc3)C2)n1 [Compound 159]
< 10 nM,< 10 nM,"COC1(C(=O)NCc2ccc(-n3cccn3)nc2)CCN(c2cc(C)cc(Nc3cc(C)[nH]n3)n2)CC1 [Compound 160, N-((6-(1H-pyrazol-1-yl)pyridin-3-yl)methyl)-4-methoxy-1-(4-methyl-6-(3-methyl-1H-pyrazol-5-ylamino)pyridin-2-yl)piperidine-4-carboxamide]"
< 10 nM,< 10 nM,"COC1(C(=O)NCc2ccc(-n3cccn3)nc2)CCN(c2nc(C)cc(Nc3cc(C)[nH]n3)n2)CC1 [Compound 161, N-((6-(1H-pyrazol-1-yl)pyridin-3-yl)methyl)-4-methoxy-1-(4-methyl-6-((5-methyl-1H-pyrazol-3-yl)amino)pyrimidin-2-yl)piperidine-4-carboxamide]"
< 10 nM,< 10 nM,Cc1cc(Nc2cc(C)[nH]n2)nc(N2CCC(O)(C(=O)N(C)Cc3ccc(-n4cccn4)nc3)CC2)n1 [Compound 162]
10 to 100 nM,10 to 100 nM,COC1(C(=O)NCc2ccc(-n3nc(C)cc3C)nc2)CN(c2nc(C)cc(Nc3cc(C)[nH]n3)n2)C1 [Compound 163]
< 10 nM,< 10 nM,Cc1cc(Nc2cc(C)[nH]n2)nc(N2CCC(C(=O)N[C@@H](C)c3ccc(-n4cc(F)cn4)nc3)CC2)c1 [Compound 164]
< 10 nM,< 10 nM,Cc1cc(Nc2cc(C)c(C#N)c(N3CC(F)(C(=O)NCc4ccc(-n5cc(F)cn5)nc4)C3)n2)n[nH]1 [Compound 165]
< 10 nM,< 10 nM,"CCC1(C(=O)N[C@@H](C)c2ccc(-n3cc(F)cn3)nc2)CN(c2nc(C)cc(Nc3cc(C)[nH]n3)n2)C1 [Compound 166, (S)-3-ethyl-N-(1-(6-(4-fluoro-1H-pyrazol-1-yl)pyridin-3-yl)ethyl)-1-(4-methyl-6-((5-methyl-1H-pyrazol-3-yl)amino)pyrimidin-2-yl)azetidine-3-carboxamide]"
< 10 nM,< 10 nM,COC1(C(=O)N[C@@H](C)c2ccc(-n3cc(F)cn3)nc2)CN(c2cc(C)cc(Nc3cc(C)[nH]n3)n2)C1 [Compound 167]
< 10 nM,< 10 nM,COC1(C(=O)N[C@@H](C)c2ccc(-n3cccn3)nc2)CN(c2nc(Nc3cc(C)[nH]n3)cc(C)c2F)C1 [Compound 168]
< 10 nM,< 10 nM,COC1(C(=O)N[C@@H](C)c2ccc(-n3cc(F)cn3)nc2)CN(c2nc(C)cc(Nc3cc(C)[nH]n3)n2)C1 [Compound 169]
< 10 nM,< 10 nM,COC1(C(=O)N[C@@H](C)c2ccc(-n3cc(F)cn3)nc2)CN(c2cc(C)nc(Nc3cc(C)[nH]n3)n2)C1 [Compound 170]
< 10 nM,< 10 nM,Cc1cc(Nc2cc(C)c(F)c(N3CC(C(=O)N(C)[C@@H](C)c4ccc(-n5cc(F)cn5)nc4)C3)n2)n[nH]1 [Compound 171]
< 10 nM,< 10 nM,COC1(C(=O)NCc2ccc(-n3cc(Cl)cn3)nc2)CN(c2nc(C)cc(Nc3cc(C)[nH]n3)n2)C1 [Compound 172]
< 10 nM,< 10 nM,COC1(C(=O)NCc2ccc(-n3cccn3)nc2)CN(c2cc(C(F)F)cc(Nc3cc(C)[nH]n3)n2)C1 [Compound 173]
< 10 nM,< 10 nM,COC1(C(=O)NCc2ccc(-n3cc(F)cn3)nc2)CN(c2nc(Nc3cc(C)[nH]n3)cc(C)c2F)C1 [Compound 174]
< 10 nM,< 10 nM,COC1(C(=O)N[C@@H](C)c2ccc(-n3cccn3)nc2)CN(c2nc(Nc3cc(C)[nH]n3)cc(C)c2C#N)C1 [Compound 175]

IC50 (wild type RET),IC50 (RET V804L),Compound
10 to 100 nM,10 to 100 nM,COC1(C(=O)NCc2ccc(N3CCC(F)(F)C3)nc2)CN(c2nc(C)cc(Nc3cc(C)[nH]n3)n2)C1 [Compound 176]
< 10 nM,< 10 nM,COC1(C(=O)NCc2ccc(-n3ccc(C4CC4)n3)nc2)CN(c2cc(C)cc(Nc3cc(C)[nH]n3)n2)C1 [Compound 177]
< 10 nM,< 10 nM,COC1(C(=O)NCc2ccc(-n3cc(C4CC4)cn3)nc2)CN(c2nc(C)cc(Nc3cc(C)[nH]n3)n2)C1 [Compound 178]
< 10 nM,< 10 nM,COC1(C(=O)NCc2ccc(-n3ccc(C4CC4)n3)nc2)CN(c2nc(C)cc(Nc3cc(C)[nH]n3)n2)C1 [Compound 179]
< 10 nM,< 10 nM,Cc1cc(Nc2cc(C(F)F)cc(N3CC(F)(C(=O)NCc4ccc(-n5cc(F)cn5)nc4)C3)n2)n[nH]1 [Compound 180]
< 10 nM,< 10 nM,COC1(C(=O)N[C@@H](C)c2ccc(-n3cccn3)nc2)CCN(c2cc(C)cc(Nc3cc(C)[nH]n3)n2)CC1 [Compound 181]
< 10 nM,< 10 nM,Cc1cc(Nc2cc(C)[nH]n2)nc(N2CCC(O)(C(=O)NCc3ccc(-n4nc(C)cc4C)nc3)CC2)c1 [Compound 182]
< 10 nM,< 10 nM,Cc1cc(Nc2cc(C(F)F)cc(N3CC(F)(C(=O)NCc4cnc(-n5cc(F)cn5)cn4)C3)n2)n[nH]1 [Compound 183]
< 10 nM,< 10 nM,COC1(C(=O)NCc2ccc(-n3cc(F)cn3)nc2)CN(c2nc(Nc3cc(C)[nH]n3)cc(C)c2C#N)C1 [Compound 184]
< 10 nM,< 10 nM,COC1(C(=O)N(C)Cc2ccc(-n3cccn3)nc2)CCN(c2nc(C)cc(Nc3cc(C)[nH]n3)n2)CC1 [Compound 185]
< 10 nM,< 10 nM,COC1(C(=O)N[C@@H](C)c2ccc(-n3cccn3)nc2)CCN(c2nc(C)cc(Nc3cc(C)[nH]n3)n2)CC1 [Compound 186]
< 10 nM,< 10 nM,Cc1cc(Nc2cc(C)[nH]n2)nc(N2CCC(O)(C(=O)N(C)[C@@H](C)c3ccc(-n4cccn4)nc3)CC2)n1 [Compound 187]
< 10 nM,< 10 nM,Cc1cc(Nc2cc(C)[nH]n2)nc(N2CCC(C)(C(=O)N[C@@H](C)c3ccc(-n4cc(F)cn4)nc3)CC2)c1 [Compound 188]
< 10 nM,< 10 nM,Cc1cc(Nc2cc(C)c(C#N)c(N3CC(F)(C(=O)N[C@@H](C)c4ccc(-n5cc(F)cn5)nc4)C3)n2)n[nH]1 [Compound 189]
< 10 nM,< 10 nM,CCC1(C(=O)NCc2ccc(-n3cc(F)cn3)nc2)CCN(c2nc(C)cc(Nc3cc(C)[nH]n3)n2)CC1 [Compound 190]
< 10 nM,< 10 nM,Cc1cc(Nc2cc(C)[nH]n2)nc(N2CCC(C)(C(=O)N[C@@H](C)c3ccc(-n4cc(F)cn4)nc3)CC2)n1 [Compound 191]
< 10 nM,< 10 nM,Cc1cc(Nc2cc(C)[nH]n2)nc(N2CCC(O)(C(=O)N[C@@H](C)c3ccc(-n4cc(F)cn4)nc3)CC2)c1 [Compound 192]
< 10 nM,< 10 nM,COC1(C(=O)NCc2ccc(-n3cc(F)cn3)nc2)CCN(c2cc(C)cc(Nc3cc(C)[nH]n3)n2)CC1 [Compound 193]

# From US10227329B2, “Compounds useful for treating disorders related to RET” (BLUEPRINT MEDICINES CORPORATION, priority 2016, dated 2019)
